Results on 14 compounds are retold here after US8877733B2, “1′-substituted pyrimidine N-nucleoside analogs for antiviral treatment” (Gilead Sciences, Inc., priority 2011, dated 2014).

SMILES strings stand for the structures. Where two headings read alike, the source gives them in different places.

Series [1] deals with mitochondrial protein levels of Complexes II and IV. As to the kind of experiment: Mitochondrial Biogenesis Assay after 5-day treatment in PC-3 cells. The series is classed as cell-based. The settings on record: human. The protocol:
(§1) Three-fold serial dilutions of compounds were prepared in duplicate in 96-well plates starting at a concentration close to the CC50 value of the compound after 5-day treatment. For compounds with CC50≧100 μM, the starting concentration was 100 μM. PC-3 cells were plated at a density of 2.5×10^3 cells per well in a final assay volume of 100 μL per well with a constant amount of DMSO equal to 0.5%. After 5-day incubation, the cells were analyzed with the MitoSciences MitoBiogenesis™ In-Cell ELISA Kit (catalog #MS642), which uses quantitative immunocytochemistry to measure protein levels of Complexes II and IV in cultured cells. Cells were fixed in a 96-well plate and target proteins were detected with highly-specific, well-characterized monoclonal antibodies. The protein levels were quantified with IRDyee-labeled Secondary Antibodies. IR imaging and quantitation was performed using a LI-COR® Odyssey instrument. All ratios were expressed as a percentage of the 0.5% DMSO control. In cases where cell viability was severely affected, the data for mitochondrial biogenesis was not included for analysis due to significant errors associated with low signals. Chloramphenicol was used as the positive control for the assay.

In the next series the test system is RSV strain A2. As to the kind of experiment: RSV-induced cytopathic effect in Hep2 cells, 384 well method. Particulars: human respiratory syncytial virus, HEp-2, 120 h. The series is classed as cell-based. The protocol:
Antiviral activity against RSV is determined using an in vitro cytoprotection assay in Hep2 cells. […] The method used is similar to methods previously described in published literature (Chapman et al., Antimicrob Agents Chemother. 2007, 51(9):3346-53.)
Compounds were also tested for antiviral activity against RSV in Hep2 cells using a 384 well format. Compounds were diluted in DMSO using a 10-step serial dilution in 3-fold increments via automation in 4 adjacent replicates each. Eight compounds were tested per dilution plate. 0.4 uL of diluted compounds were then stamped via Biomek into 384-well plates (Nunc 142761 or 164730 w/lid 264616) containing 20 μL of media (Mediatech Inc. MEM supplemented with Glutamine, 10% FBS and Pen/Strep). DMSO and a suitable positive control compound, such as 80 μM GS-329467 or 10 μM 427346 was used for the 100% and 0% cell killing controls, respectively.
Hep2 cells (1.0×10^5 cells/mil) were prepared as above in batch to at least 40 mls excess of the number of sample plates (8 mls cell mix per plate) and infected with vendor supplied (ABI) RSV strain A2 to arrive at an MOI of 1:1000 (virus:cell #) or 1:3000 (vol virus: cell vol). Immediately after addition of virus, the RSV infected Hep2 cell suspension was added to each stamped 384-well plate at 20 μl per well using a uFlow dispenser, giving a final volume of 40 μL/well, each with 2000 infected cells. The plates were then incubated for 5 days at 37° C. and 5% CO2. Following incubation, the plates were equilibrated to room temperature in a biosafety cabinet hood for 1.5 hrs and 40 μL of Cell-Titer Glo viability reagent (Promega) was added to each well via uFlow. Following a10-20 minute incubation, the plates were read using an EnVision or Victor Luminescence plate reader (Perkin-Elmer). The data was then uploaded and analyzed on the Bioinformatics portal under the RSV Cell Infectivity and 8-plate EC50-Hep2-384 or 8-plate EC50-Hep2-Envision protocols.

A further series deals with HCV Δ21 NS5b polymerase (Hepatitis C virus genotype 1b (isolate Con1) (HCV), UniProt Q9WMX2). As to the kind of experiment: HCV IC50 determination, NS5b polymerase assay. The series is classed as biochemical. Particulars: wild type or S282T mutant enzyme not specified, nucleoside triphosphates. The protocol: Assay Protocol: Either wild type or S282T (Migliaccio, et al., J. Biol. Chem. 2003, 49164-49170; Klumpp, et al., J. Biol. Chem. 2006, 3793-3799) mutant polymerase enzyme was used in this assay. NS5b polymerase assay (40 μL) was assembled by adding 28 μL polymerase mixture (final concentration: 50 mM Tris-HCl at pH 7.5, 10 mM KCl, 5 mM MgCl2, 1 mM DTT, 10 mM EDTA, 4 ng/μL of RNA template, and 75 nM HCV Δ21 NS5b polymerase) to assay plates followed by 4 μL of compound dilution. The polymerase and compound were pre-incubated at 35° C. for 10 minute before the addition of 8 μL of nucleotide substrate mixture (33P-[…] competing nucleotide at KM and 0.5 mM of the remaining three nucleotides). The assay plates were covered and incubated at 35° C. for 90 min. Reactions were then filtered through 96-well DEAE-81 filter plates via vacuum. The filter plates were then washed under vacuum with multiple volumes of 0.125 M NaHPO4, water, and ethanol to remove unincorporated label. Plates were then counted on TopCount to assess the level of product synthesis over background controls. The IC50 value is determined using Prism fitting program.

For another series, the system named is HCV replicon cells. As to the kind of experiment: HCV EC50 determination, replicon cells luciferase assay. The series is classed as cell-based. The settings on record: Hepatitis C virus. The protocol: Replicon cells were seeded in 96-well plates at a density of 8×10^3 cells per well in 100 μL of culture medium, excluding Geneticin. Compound was serially diluted in 100% DMSO and then added to the cells at a 1:200 dilution, achieving a final concentration of 0.5% DMSO and a total volume of 200 μL. Plates were incubated at 37° C. for 3 days, after which culture medium was removed and cells were lysed in lysis buffer provided by Promega's luciferase assay system. Following the manufacturer's instruction, 100 μL of luciferase substrate was added to the lysed cells and luciferase activity was measured in a TopCount luminometer.

For series [2], the system named is protein levels of Complexes II and IV in PC-3 cells. The series is described as follows: Mitochondrial Biogenesis Assay after 5-day treatment in PC-3 cells. The settings on record: PC-3 cells, 5-day treatment; maximum concentration tested 100 μM. The series is classed as cell-based. The method, then: as §1
The mark [3] stands for this setting: Hep2 cells, RSV A2, 5 days, Cell-Titer Glo, 384 well format, read-out: EC50.

`O=C(N[C@H](CO)[C@H](O)c1ccc([N+](=O)[O-])cc1)C(Cl)Cl` [Chloramphenicol, reference compound]: the midpoint of cytotoxicity in series [1], the CC50 at 5 days, lay at 2.5 µM.

Regarding `N#C[C@@]1(n2ccc(=O)[nH]c2=O)O[C@H](CO)[C@@H](O)[C@H]1O` [Compound 3], in the series with RSV strain A2 (setting [3]), the EC50 was 10.9 µM.

With `N#C[C@@]1(n2ccc(N)nc2=O)O[C@H](CO)[C@@H](O)[C@H]1O` [Compound 4], in the series with RSV strain A2 (setting [3]), the EC50 turned out to be 11.3 µM.

Consider `C[C@@H](O)[C@H]1O[C@@](C#N)(n2ccc(=O)[nH]c2=O)[C@@H](O)[C@@H]1O` [Compound 10], for which the EC50 with RSV strain A2 (setting [3]) came out at 200 µM.

For the compound `C[C@@H](O)[C@H]1O[C@@](C#N)(n2ccc(N)nc2=O)[C@@H](O)[C@@H]1O` [Compound 11], the EC50 in the series with RSV strain A2 (setting [3]) turned out to be 200 µM.

As for `CO[C@@H]1[C@H](O)[C@@H](CO)O[C@@]1(C#N)n1ccc(=O)[nH]c1=O` [Compound 12], in the series on RSV strain A2 (setting [3]), the EC50 turned out to be 200 µM.

As to `CO[C@@H]1[C@H](O)[C@@H](CO)O[C@@]1(C#N)n1ccc(N)nc1=O` [Compound 13], the EC50 in the series on RSV strain A2 (setting [3]) was found to be 200 µM.

On to `C[C@H]1[C@H](O)[C@@H](CO)O[C@@]1(C#N)n1ccc(=O)[nH]c1=O` [Compound 15], for which, in the series with RSV strain A2 (setting [3]), the EC50 came out at 200 µM.

Regarding `C[C@@]1(O)[C@H](O)[C@@H](COP(=O)(O)OP(=O)(O)OP(=O)(O)O)O[C@@]1(C#N)n1ccc(=O)[nH]c1=O` [Compound 27], on HCV Δ21 NS5b polymerase, inhibition was half-maximal at 27 µM (IC50).

The compound `C[C@@]1(O)[C@H](O)[C@@H](COP(=O)(O)OP(=O)(O)OP(=O)(O)O)O[C@@]1(C#N)n1ccc(N)nc1=O` [Compound 28] gave an IC50 on HCV Δ21 NS5b polymerase of 18 µM.

As to `CC(C)OC(=O)[C@H](C)NP(=O)(OC[C@H]1O[C@@](C#N)(n2ccc(=O)[nH]c2=O)[C@](C)(O)[C@@H]1O)Oc1ccccc1` (stereo partly drawn) [Compound 29], in the series on HCV replicon cells (72 h), the EC50 stood at 8.2 µM.

For the compound `CC(C)OC(=O)[C@H](C)N[P@](=O)(OC[C@H]1O[C@@](C#N)(n2ccc(N)nc2=O)[C@](C)(O)[C@@H]1O)Oc1ccccc1` [Compound 30], in series [2], the “50% inhibition of mitochondrial protein levels” value was > 100 µM. For the same compound, in series [1] (mitochondrial toxicity, PC-3 cells, 5-day treatment, maximum concentration tested 100 μM, read-out: CC50), the CC50 at 5 days is > 100 µM. Further, the EC50 is 200 µM in the series with RSV strain A2, 2.6 µM in the series with HCV replicon cells (72 h), 2.6 µM in the series on HCV replicon cells (read-out: EC50 (antiviral activity)) and 2.6 µM in the series with HCV replicon cells (read-out: HCV EC50).

Compound `CC(C)OC(=O)[C@H](C)N[P@](=O)(OC[C@H]1O[C@@](C#N)(n2ccc(N)nc2=O)[C@](C)(O)[C@@H]1OC(=O)C(C)C)Oc1ccccc1` [Compound 35] had an EC50 with RSV strain A2 of 200 µM.

For `C[C@@]1(O)[C@H](O)[C@@H](CO)O[C@H]1n1ccc(N)nc1=O` [Compound A, reference compound], it took 43 µM to reach half-maximal cytotoxicity in series [1] (CC50 at 5 days). In addition, the EC50 in the series with HCV replicon cells (HCV replicon, read-out: EC50 (antiviral activity)) turned out to be 2.5 µM; in the series on HCV replicon cells (replicon, comparison table R6=H vs R6=CN, read-out: HCV EC50) it was 2.5 µM.
